Several values for one entry are separate records, joined by “and”; a condition that tells them apart may be missing. Identical values can stand only once. Like-named read-outs stand apart in the source and are kept apart here. Where no end group is shown, it is not given here.
Tested on: C. elegans
[1] = Table S2, C. elegans SS assay, 110 μM, 0 h, averages of 4 data points
[2] = Table S2, C. elegans SS assay, 110 μM, 24 h, averages of 4 data points

Molecule | Percentage of motility inhibition 0 h [1] | Percentage of motility inhibition 24 h [2] | other results
C[C@@H](O)[C@H]1C(=O)N2C(C(=O)[O-])=C(S[C@@H]3CN[C@H](C(=O)Nc4cccc(C(=O)O)c4)C3)[C@H](C)[C@H]12.[Na+] [Ertapenem sodium] | 0% | 0% | 
CN1CCC=C(C(=O)O)C1.Cl [Arecaidine (hydrochloride)] | 7% | 6% | 
COc1cc(-c2oc3cc(O)cc(O)c3c(=O)c2O[C@@H]2O[C@H](CO)[C@@H](O)[C@H](O)[C@H]2O[C@@H]2O[C@@H](C)[C@H](O)[C@@H](O)[C@H]2O)ccc1O [Isorhamnetin‐3‐O‐neohespeidoside] | 45% | 5% | 
C[C@@H]1O[C@@H](O[C@H]2[C@H](OC(=O)[C@]34CCC(C)(C)C[C@H]3C3=CC[C@@H]5[C@@]6(C)C[C@H](O)[C@H](O[C@@H]7O[C@H](CO)[C@@H](O)[C@H](O)[C@H]7O)C(CO)(CO)[C@@H]6CC[C@@]5(C)[C@]3(C)C[C@H]4O)OC[C@H](O)[C@@H]2O)[C@H](O)[C@H](O)[C@H]1O[C@@H]1OC[C@@H](O)[C@H](O)[C@H]1O [Deapioplatycodin D] | 12% | 0% | 
CC(=O)O[C@H]([C@@H](O)C[C@@H](C)C1=C2C[C@H](O)[C@H]3[C@@]4(C)CCC(=O)C(C)(C)[C@@H]4CC[C@]3(C)[C@@]2(C)CC1)C(C)(C)O [Alisol A 24-acetate] | 3% | 23% | 
C=C1[C@H]2C[C@H]2[C@]2(C)Cc3occ(C)c3[C@H](O)[C@@H]12 [Lindenenol] | 0% | 19% | 
C/C1=C\[C@@H]2[C@H](C/C=C(/CO)[C@@H](O)[C@@H]3[C@@H](O)[C@@H](C)C[C@]3(O)C1=O)C2(C)C [17-Hydroxyisolathyrol] | 13% | 29% | 
C[C@@H]1O[C@@H](Oc2cc(O)c3c(c2)O[C@H](c2ccc(O)c(O)c2)[C@@H](O)C3=O)[C@H](O)[C@H](O)[C@H]1O [Taxifolin 7‐O‐rhamnoside] | 33% | 12% | 
C=C[C@]1(C)C[C@@H](OC(=O)CSC(C)(C)CNC(=O)[C@H](N)C(C)C)[C@]2(C)[C@H](C)CC[C@]3(CCC(=O)[C@H]32)[C@@H](C)[C@@H]1O.Cl [Valnemulin (Hydrochloride)] | 29% | 12% | 
O=C([O-])c1ccccc1O.[Na+] [Sodium Salicylate] | 2% | 4% | 
C=C[C@H]1[C@H](O[C@@H]2O[C@H](CO)[C@@H](O)[C@H](O)[C@H]2O)OC=C(C(=O)OC)[C@H]1CCOC(=O)c1cc(O)c(O)c(O)c1 [Cornuside] | 0% | 24% | 
Kukoamine B | 8% | 0% | 
COc1cc(/C=C/C(=O)[O-])ccc1O.[Na+] [Ferulic acid (sodium)] | 10% | 0% | 
Nordihydrocapsaicin |  |  | Percentage of motility inhibition 0 h (110 µM): 0%; Percentage of motility inhibition 24 h (110 µM): 4%
CC(C)=CCC[C@](C)(O)[C@H]1CC[C@]2(C)[C@@H]1[C@H](O)C[C@@H]1[C@@]3(C)CC[C@H](O)C(C)(C)[C@@H]3[C@@H](O)C[C@]12C [(20S)-Protopanaxatriol] | 31% | 32% | 
CCO[C@H]1O[C@@H]2O[C@@]3(C)CC[C@H]4[C@H](C)CC[C@@H]([C@H]1C)[C@@]24OO3 [Artemotil] |  | 0% and 2% | 
RKDVY [Thymopentin] |  |  | Percentage of motility inhibition 0 h (0 h, 110 μM): 36%; Percentage of motility inhibition 24 h (24 h, 110 µM): 3%
Oc1cc(O)c2c(c1)O[C@@]1(c3ccc(O)c(O)c3)Oc3cc(O)c4c(c3[C@@H]2[C@H]1O)O[C@H](c1ccc(O)c(O)c1)[C@H](O)[C@H]4c1c(O)cc(O)c2c1O[C@H](c1ccc(O)c(O)c1)[C@H](O)C2 [Cinnamtannin B‐1] | 0% | 4% | 
CC(=O)OC[C@]12C[C@H](OC(=O)CC(C)C)C(C)=C[C@H]1O[C@@H]1[C@H](O)[C@@H](OC(C)=O)[C@@]2(C)[C@]12CO2 [T-2 Toxin] |  |  | Percentage of motility inhibition 0 h (110 µM): 11%; Percentage of motility inhibition 24 h (110 µM): 2%
O=C(/C=C/c1ccc(O)c(O)c1)c1ccc(O)c(O)c1O [Okanin] | 9% | 31% | 
C=C(C)[C@@H]1CC=C(CO)CC1 [Perillyl alcohol] | 0% | 6% | 
CCCCCCCCCCCCCCCCCC(=O)NCc1ccccc1 [N‐Benzyloctadecanamide] | 35% | 17% | 

Molecule | Percentage of motility inhibition 0 h [1] | Percentage of motility inhibition 24 h [2] | other results
C[C@H]1[C@H]2[C@H](O[C@@H]3O[C@H](CO)[C@@H](O)[C@H](O)[C@H]3O)OC=C(C(=O)O)[C@H]2C[C@@H]1O [8-Epiloganic acid] | 4% | 15% | 
Cn1nnc(-c2ccc(-c3ccc(N4C[C@@H](CO)OC4=O)cc3F)cn2)n1 [(S)‐Tedizolid] | 26% | 5% | 
C[C@@H]1O[C@@H](O[C@H]2[C@H](O[C@H]3[C@H](O[C@H]4CC[C@@]5(C)[C@@H](CC[C@]6(C)[C@@H]5CC=C5[C@@H]7CC(C)(C)C[C@@H](O)[C@]7(C)CC[C@]56C)[C@@]4(C)CO)O[C@H](C(=O)O)[C@@H](O)[C@@H]3O)O[C@H](CO)[C@H](O)[C@@H]2O)[C@H](O)[C@H](O)[C@H]1O [Soyasaponin Bb] | 0% | 0% | 
CC(=O)O.CC(=O)O.CC[C@H](C)C[C@H](C)CCCCCCCCC(=O)N[C@H]1C[C@@H](O)[C@@H](NCCN)NC(=O)[C@@H]2[C@@H](O)CCN2C(=O)[C@H]([C@H](O)CCN)NC(=O)[C@H]([C@H](O)[C@@H](O)c2ccc(O)cc2)NC(=O)[C@@H]2C[C@@H](O)CN2C(=O)[C@H]([C@@H](C)O)NC1=O [Caspofungin (Acetate)] | 27% | 4% | 
CC(C)=CCc1c(O)cc2c(c1O)C(=O)C[C@@H](c1ccc(O)cc1)O2 [(2S)‐6‐Prenylnaringenin] | 0% | 0% | 
CC1(C)CC[C@]2(C(=O)O)CC[C@]3(C)C(=CC[C@@H]4[C@@]5(C)C[C@H](O)[C@H](O)[C@@](C)(C(=O)O)[C@@H]5CC[C@]43C)[C@@H]2C1 [Medicagenic acid] | 0% | 5% | 
CN[C@@H]1[C@@H](O[C@H]2O[C@H](CO)[C@@H](N)[C@H](O)[C@H]2O)OC2C[C@@H](N)[C@@H](O[C@H]3[C@H](O)[C@@H](O)[C@H](N)C[C@@H]3N)OC2[C@@H]1O (stereo partly drawn) [Apramycin (sulfate)] | 29% | 2% | 
N=C(N)NCCC[C@H](N)C(=O)O.N[C@@H](CCC(=O)O)C(=O)O [L-Arginine (L-glutamate)] | 22% | 0% | 
CC1CCC(C(C)C)C(O)C1 (racemic) [DL-Menthol] | 27% | 0% | 
CC(C)CCC[C@@H](C)[C@H]1CC[C@@]2(C)C3=C(CC[C@]12C)[C@@]1(C)CC[C@H](O)C(C)(C)[C@@H]1CC3 [24,25-Dihydrolanosterol] | 3% | 4% | 
COc1ccc(C[C@H](N)C(=O)N[C@H]2[C@@H](O)[C@H](n3cnc4c(N(C)C)ncnc43)O[C@@H]2CO)cc1.Cl.Cl [Puromycin (D ihydrochloride)] | 13% | 14% | 
Nc1ccc(S(=O)(=O)Nc2cncc(Cl)n2)cc1 [Sulfaclozine] | 3% | 1% | 
CC(=O)OCC1=C(C(=O)[O-])N2C(=O)[C@@H](NC(=O)Cc3cccs3)[C@H]2SC1.[Na+] [Cephalothin (sodium)] | 9% | 11% | 
NC(=O)c1cc([N+](=O)[O-])cc([N+](=O)[O-])c1 [Nitromide] | 25% | 12% | 
Benzalkonium chloride | 50% | 58% | 
CC1(O)CCC(C(C)(C)O)CC1.O (stereo not drawn) [Terpin (hydrate)] | 9% | 5% | 
CO[C@H]1C[C@H](O[C@H]2[C@H](C)O[C@@H](O[C@@H]3/C(C)=C/C[C@@H]4C[C@@H](C[C@]5(C=C[C@H](C)[C@@H](C6CCCCC6)O5)O4)OC(=O)[C@@H]4C=C(C)[C@@H](O)[C@H]5OC/C(=C\C=C\[C@@H]3C)[C@]54O)C[C@@H]2OC)O[C@@H](C)[C@@H]1O [Doramectin] | 66% | 49% | 
COC(=O)C1=CO[C@@H](C)[C@@H]2CN3CC[C@@]4(C(=O)Nc5ccccc54)[C@@H]3C[C@H]12 [Isopteropodine] | 9% | 0% | 
COc1ccc(-c2coc3cc(O[C@@H]4O[C@H](CO)[C@@H](O)[C@H](O)[C@H]4O)ccc3c2=O)cc1O [Calycosin‐7‐O‐β‐D‐glucoside] | 20% | 11% | 
C[C@@H]1CC[C@]2(C(=O)O)CC[C@]3(C)C(=CC[C@@H]4[C@@]5(C)C[C@@H](O)[C@H](O)C(C)(C)[C@@H]5CC[C@]43C)[C@@H]2[C@]1(C)O [Tormentic acid] | 3% | 5% | 
CC1(C)S[C@@H]2[C@H](NC(=O)Cc3ccccc3)C(=O)N2[C@H]1C(=O)[O-].[K+] [Penicillin G (potassium)] | 14% | 8% | 
Bulleyaconitine A | 26% | 26% | 
